Experimental data published in patent publication US6339716B1, “Method for determining viability of a myocardial segment” (Bioenergy Inc., priority 1999, dated 2002).

Tested on: patients suspected of having stunned or hibernating myocardium
Test: Dobutamine echocardiography, regional wall motion during D-Ribose or placebo infusion (randomized, double-blind, crossover clinical trial)
Type: in vivo
Conditions: during low-dose dobutamine infusion (5μ/kg/minute); D-Ribose 10% in water iv at 180 mg/kg/hour; 25 patients, 16 left ventricular segments each
Description: A single-center, randomized, double-blind placebo-controlled clinical trial was carried out to evaluate the safety and efficacy of D-Ribose on myocardial wall motion during echocardiographic examination in patients suspected of having stunned or hibernating myocardium. Patients were randomized into placebo and ribose groups according to a computer generated randomization schedule. The identity of the contents was blinded to the investigator. Patients were identified by initials. The selected study population was comprised of 25 patients (22 men and 3 women) with a mean age of 57+/−11 years. All had reduced left ventricular systolic function (mean ejection fraction 30+/−8%, range 18 to 48%). Twenty-two patients (88%) had prior myocardial infarction and only one subject was evaluated after recent (<4 weeks) infarction. […] Post-infusion images were recorded approximately eight minutes after discontinuation of dobutamine. […] Parasternal long and short-axis and apical two and four-chamber images were recorded on 0.5 inch videotape and digitally stored on floppy discs using a Nova MicroSonics DCR or Colorvue system (Mahwah, N.J.). […]

SMILES: O=C[C@H](O)[C@H](O)[C@H](O)CO [D-Ribose]
- segments in which wall motion improved: 65 segments
